Test results from US8180580B2, “Method for identifying a compound that modulates SIR2 protein activity” (The Wistar Institute, priority 2007, dated 2012).

Columns and labels:
Sir2 = Sir2 (Saccharomyces cerevisiae, UniProt P53686); assay type: biochemical
Procedure: In parallel to the in silico screen, a solution screen for Sir2 effectors was carried out. A library containing about 10,000 Diversity Oriented Synthesis (DOS) compounds and natural product sub-libraries of compounds was screened using both yHst2 and hSIRT1 proteins.

Hst2 (residues 1-294) = Hst2 (residues 1-294) (Saccharomyces cerevisiae, UniProt P53686); assay: biased in vitro screening assay for relief of nicotinamide inhibition (Fluor de Lys); assay type: biochemical; conditions: […] μM nicotinamide present
Procedure: This in vitro screen was carried out as follows.

Sequence of Sir2 (P53686 1-294): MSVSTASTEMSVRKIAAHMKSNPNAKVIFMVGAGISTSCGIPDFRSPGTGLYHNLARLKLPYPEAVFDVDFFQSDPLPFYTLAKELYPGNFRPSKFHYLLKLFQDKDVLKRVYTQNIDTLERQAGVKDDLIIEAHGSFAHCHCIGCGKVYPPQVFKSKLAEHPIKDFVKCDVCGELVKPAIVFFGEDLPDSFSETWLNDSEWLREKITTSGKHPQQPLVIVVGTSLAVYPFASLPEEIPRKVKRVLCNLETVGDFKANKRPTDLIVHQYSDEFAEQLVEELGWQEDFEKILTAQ
Sequence of Hst2 (residues 1-294) (P53686 1-294): as above

Compound: O=C(O)CCN1Cc2ccccc2C1=O
- IC50 (Sir2): 19.8 ± 1.1 µM

Compound: 6-(4-Fluoro- phenyl)-2,3- diphenyl-1,5- dihydro- imidazo[1,2- α]imidazole
- Fold Activation (Hst2 (residues 1-294)): 2.9

Compound: CC1(C)CC(=O)C2=C(C1)NC1=C(C(=O)CC(C)(C)C1)C2c1cccc(F)c1 [9-(3-Fluoro-phenyl)-3,3,6,6-tetramethyl-2,4,6,7,9,10-hexahydro-2H,5H-acridine-1,8-dione]
- Fold Activation (Hst2 (residues 1-294)): 2.2

Compound: Zinc pyrithione [reference compound]
- IC50 (Sir2): 1.8 ± 1.3 µM
